Data: ChEMBL document CHEMBL4118139, “Novel naphthyloxy derivatives - Potent histamine H3 receptor ligands. Synthesis and pharmacological evaluation” (Bioorg Med Chem, 2018)
Active and inactive are the calls of the source. The calls are words filed in the database; no cut-off is given here.

Legend:
[1] = target: Histamine H1 receptor (Homo sapiens) (UniProt P35367); assay: Displacement of [3H]-pyrilamine from human histamine H1 receptor expressed in CHO cell membranes at 1 uM relative to chlorpheniramine
[2] = system: Mus musculus; assay: Neurotoxicity in albino CF-1 mouse at 65 mg/kg after 0.25 hrs by rotarod test; assay type: toxicity, organism-based; conditions: in vivo
[3] = system: Mus musculus; assay: Neurotoxicity in albino CF-1 mouse at 50 mg/kg, ip after 1 hr by rotarod test; assay type: toxicity, organism-based; conditions: in vivo
[4] = system: Mus musculus; assay: Neurotoxicity in albino CF-1 mouse at 50 mg/kg, ip after 0.5 hrs by rotarod test; assay type: toxicity, organism-based; conditions: in vivo
[5] = system: Mus musculus; assay: Neurotoxicity in albino CF-1 mouse at 30 mg/kg, ip after 0.25 hrs by rotarod test; assay type: toxicity, organism-based; conditions: in vivo
[6] = system: Rattus norvegicus; assay: Anticonvulsant activity in Sprague-Dawley rat assessed as protection against maximal electroshock-induced seizures at 30 mg/kg, po after 0.5 hrs; assay type: functional, organism-based
[7] = system: Rattus norvegicus; assay: Anticonvulsant activity in ip Sprague-Dawley rat assessed as protection against subcutaneous pentylenetetrazole-induced seizures measured after 0.25 hrs; assay type: functional
[8] = system: Mus musculus; assay: Neurotoxicity in albino CF-1 mouse at 50 mg/kg, ip after 4 hrs by rotarod test; assay type: toxicity, organism-based; conditions: in vivo
[9] = system: Mus musculus; assay: Neurotoxicity in albino CF-1 mouse at 65 mg/kg after 4 hrs by rotarod test; assay type: toxicity, organism-based; conditions: in vivo
[10] = system: Mus musculus; assay: Neurotoxicity in albino CF-1 mouse at 50 mg/kg after 4 hrs by rotarod test; assay type: toxicity, organism-based; conditions: in vivo
[11] = system: Mus musculus; assay: Anticonvulsant activity in ip dosed albino CF-1 mouse assessed as protection against maximal electroshock-induced seizures after 1 hr; assay type: functional; conditions: CF-1, ip
[12] = target: 5-hydroxytryptamine receptor 7 (Homo sapiens, UniProt P34969); assay: Displacement of [3H]-5-carboxyamidotryptamine from human 5-HT7 receptor expressed in HEK293 cell membranes after 1 hr
[13] = system: Mus musculus; assay: Anticonvulsant activity in albino CF-1 mouse assessed as protection against 32 mA current-induced seizure at 50 mg/kg, ip after 4 hrs by 6 Hz psychomotor test; assay type: functional, organism-based
[14] = system: Mus musculus; assay: Neurotoxicity in albino CF-1 mouse at 65 mg/kg after 2 hrs by rotarod test; assay type: toxicity, organism-based; conditions: in vivo
[15] = system: Mus musculus; assay: Neurotoxicity in albino CF-1 mouse at 30 mg/kg, ip after 1 hr by rotarod test; assay type: toxicity, organism-based; conditions: in vivo
[16] = system: Mus musculus; assay: Induction of sedative effect in albino Swiss CD-1 mouse at 15 mg/kg, ip; assay type: organism-based; conditions: in vivo
[17] = system: Mus musculus; assay: Neurotoxicity in albino CF-1 mouse at 30 mg/kg, ip after 2 hrs by rotarod test; assay type: toxicity, organism-based; conditions: in vivo
[18] = system: Mus musculus; assay: Neurotoxicity in albino CF-1 mouse assessed as increase in subcutaneous pentylenetetrazole-induced continuous seizures at 50 mg/kg, ip measured after 0.25 hrs; assay type: toxicity, organism-based; conditions: in vivo
[19] = system: Rattus norvegicus; assay: Anticonvulsant activity in Sprague-Dawley rat assessed as protection against maximal electroshock-induced seizures at 30 mg/kg, po after 4 hrs; assay type: functional, organism-based
[20] = Neurotoxicity in po dosed Sprague-Dawley rat after 0.25 hrs by rotarod test; assay type: toxicity, organism-based; conditions: in vivo
[21] = system: Mus musculus; assay: Neurotoxicity in albino CF-1 mouse at 50 mg/kg after 0.5 hrs by rotarod test; assay type: toxicity, organism-based; conditions: in vivo
[22] = system: Mus musculus; assay: Analgesic activity in ip dosed albino Swiss CD1 mouse assessed reduction in formalin-induced inflammatory pain by measuring reduction in time spent in licking pretreated prior to formalin injection measured at 15 to 30 mins post formalin injection; assay type: functional
[23] = Neurotoxicity in ip dosed Sprague-Dawley rat after 0.25 hrs by rotarod test; assay type: toxicity, organism-based; conditions: in vivo
[24] = target: Muscarinic acetylcholine receptor M3 (Cavia porcellus) (UniProt Q8VH26); assay: Agonist activity at muscarinic M3 receptor in guinea-pig ileum assessed as induction of contractions at 1 to 3 uM after 15 mins; assay type: functional
[25] = Therapeutic index, ratio of ip dosed albino CF-1 mouse TD50 to ip dosed albino CF-1 mouse ED50 for 32 mA current-induced 6 Hz psychomotor test; assay type: toxicity, organism-based; conditions: in vivo, read-out: TI
[26] = Neurotoxicity in ip dosed albino CF-1 mouse after 0.25 hrs by rotarod test; assay type: toxicity, organism-based; conditions: in vivo
[27] = system: Rattus norvegicus; assay: Anticonvulsant activity in po Sprague-Dawley rat assessed as protection against subcutaneous pentylenetetrazole-induced seizures measured after 1 hr; assay type: functional
[28] = Therapeutic index, ratio of ip dosed albino CF-1 mouse TD50 to ip dosed albino CF-1 mouse ED50 for 44 mA current-induced 6 Hz psychomotor test; assay type: toxicity, organism-based; conditions: in vivo, read-out: TI
[29] = system: Mus musculus; assay: Anticonvulsant activity in ip dosed albino CF-1 mouse assessed as protection against 44 mA current-induced seizure after 0.25 hrs by 6 Hz psychomotor test; assay type: functional; conditions: CF-1, ip
[30] = target: CYP3A4 (Homo sapiens, UniProt P08684); assay: Inhibition of CYP3A4 (unknown origin) at 25 uM by CYP3A4 P450-Glo assay; assay type: ADME
[31] = system: Rattus norvegicus; assay: Anticonvulsant activity in Sprague-Dawley rat assessed as protection against maximal electroshock-induced seizures at 30 mg/kg, ip after 0.5 hrs; assay type: functional, organism-based
[32] = system: Mus musculus; assay: Analgesic activity in ip dosed albino Swiss CD1 mouse assessed reduction in formalin-induced inflammatory pain by measuring reduction in time spent in licking treated prior to formalin injection measured at 0 to 5 mins post formalin injection; assay type: functional
[33] = system: Mus musculus; assay: Neurotoxicity in albino CF-1 mouse at 30 mg/kg, ip after 0.5 hrs by rotarod test; assay type: toxicity, organism-based; conditions: in vivo
[34] = system: Mus musculus; assay: Anticonvulsant activity in albino CF-1 mouse assessed as protection against maximal electroshock-induced seizures at 50 mg/kg, ip after 1 hr; assay type: functional, organism-based
[35] = target: Histamine H1 receptor (Cavia porcellus) (UniProt P31389); assay: Agonist activity at histamine H1 receptor in guinea-pig ileum assessed as induction of contractions at 1 to 3 uM after 15 mins; assay type: functional
[36] = system: Mus musculus; assay: Anticonvulsant activity in albino CF-1 mouse assessed as protection against maximal electroshock-induced seizures at 50 mg/kg, ip after 0.5 hrs; assay type: functional, organism-based
[37] = system: Salmonella typhimurium; assay: Mutagenicity in Salmonella typhimurium TA100 assessed as increase in number of revertants at 1 uM after 90 mins by Ames test; assay type: toxicity, organism-based; conditions: salmonella enterica subsp. enterica serovar typhimurium, 1.5 h
[38] = system: Rattus norvegicus; assay: Anticonvulsant activity in Sprague-Dawley rat assessed as protection against maximal electroshock-induced seizures at 30 mg/kg, ip after 0.25 hrs; assay type: functional, organism-based
[39] = system: Mus musculus; assay: Neurotoxicity in albino CF-1 mouse at 30 mg/kg, ip after 4 hrs by rotarod test; assay type: toxicity, organism-based; conditions: in vivo

Histamine H1 receptor (Cavia porcellus), sequence (P31389 whole entry): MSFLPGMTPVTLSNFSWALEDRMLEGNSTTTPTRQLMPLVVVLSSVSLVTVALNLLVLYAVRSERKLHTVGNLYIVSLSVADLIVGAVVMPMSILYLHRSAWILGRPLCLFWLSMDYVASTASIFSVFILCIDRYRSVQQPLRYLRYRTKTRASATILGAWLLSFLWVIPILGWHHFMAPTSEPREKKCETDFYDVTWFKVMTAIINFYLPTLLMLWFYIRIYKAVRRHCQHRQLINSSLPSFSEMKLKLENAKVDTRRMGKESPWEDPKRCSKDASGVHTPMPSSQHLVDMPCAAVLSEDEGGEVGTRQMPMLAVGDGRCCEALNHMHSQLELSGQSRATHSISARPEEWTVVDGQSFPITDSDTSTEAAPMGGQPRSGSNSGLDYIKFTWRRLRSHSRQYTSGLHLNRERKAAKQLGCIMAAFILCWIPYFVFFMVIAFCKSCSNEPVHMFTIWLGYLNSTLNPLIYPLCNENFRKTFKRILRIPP
5-hydroxytryptamine receptor 7, sequence (P34969 whole entry): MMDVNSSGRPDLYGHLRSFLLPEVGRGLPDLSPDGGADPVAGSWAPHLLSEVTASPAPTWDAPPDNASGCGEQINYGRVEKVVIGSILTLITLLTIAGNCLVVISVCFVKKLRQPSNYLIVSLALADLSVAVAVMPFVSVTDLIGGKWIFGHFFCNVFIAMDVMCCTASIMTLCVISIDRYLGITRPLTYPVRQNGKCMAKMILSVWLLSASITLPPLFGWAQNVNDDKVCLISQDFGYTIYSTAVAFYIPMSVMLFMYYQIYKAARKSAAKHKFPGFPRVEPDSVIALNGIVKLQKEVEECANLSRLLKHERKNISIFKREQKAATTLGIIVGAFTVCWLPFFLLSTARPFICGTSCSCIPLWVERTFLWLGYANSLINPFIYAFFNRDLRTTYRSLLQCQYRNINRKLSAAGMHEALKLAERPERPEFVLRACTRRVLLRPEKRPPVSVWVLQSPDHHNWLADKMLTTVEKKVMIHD
Muscarinic acetylcholine receptor M3 (Cavia porcellus), sequence (Q8VH26 1-587): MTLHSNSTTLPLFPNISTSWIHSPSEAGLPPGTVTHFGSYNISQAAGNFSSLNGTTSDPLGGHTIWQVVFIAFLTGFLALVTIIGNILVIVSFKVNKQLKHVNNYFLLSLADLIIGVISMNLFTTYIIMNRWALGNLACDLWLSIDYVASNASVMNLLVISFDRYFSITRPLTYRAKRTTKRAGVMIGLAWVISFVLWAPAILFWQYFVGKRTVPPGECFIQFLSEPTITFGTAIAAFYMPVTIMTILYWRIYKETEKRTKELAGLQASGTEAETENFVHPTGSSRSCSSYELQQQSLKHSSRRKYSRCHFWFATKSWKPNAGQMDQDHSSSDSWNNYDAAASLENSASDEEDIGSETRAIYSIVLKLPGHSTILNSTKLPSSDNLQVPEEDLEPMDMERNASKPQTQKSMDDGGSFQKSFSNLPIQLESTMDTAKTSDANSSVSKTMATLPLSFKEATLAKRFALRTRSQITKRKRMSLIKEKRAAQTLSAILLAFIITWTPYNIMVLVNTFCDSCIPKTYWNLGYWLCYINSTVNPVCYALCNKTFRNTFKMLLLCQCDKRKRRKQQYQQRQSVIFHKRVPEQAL
Histamine H1 receptor (Homo sapiens), sequence (P35367 whole entry): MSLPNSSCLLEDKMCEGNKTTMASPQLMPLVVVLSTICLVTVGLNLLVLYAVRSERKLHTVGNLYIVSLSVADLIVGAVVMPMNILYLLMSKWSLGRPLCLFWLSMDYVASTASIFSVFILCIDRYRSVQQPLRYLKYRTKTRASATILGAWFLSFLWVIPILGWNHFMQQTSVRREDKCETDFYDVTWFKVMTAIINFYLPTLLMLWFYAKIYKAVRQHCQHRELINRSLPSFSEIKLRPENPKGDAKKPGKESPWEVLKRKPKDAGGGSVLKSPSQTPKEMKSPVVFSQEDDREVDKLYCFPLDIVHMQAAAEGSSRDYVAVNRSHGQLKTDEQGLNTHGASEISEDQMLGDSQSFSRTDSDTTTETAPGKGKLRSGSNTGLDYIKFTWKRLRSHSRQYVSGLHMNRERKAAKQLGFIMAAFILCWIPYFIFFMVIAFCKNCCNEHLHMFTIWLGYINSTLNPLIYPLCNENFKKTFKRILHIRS
CYP3A4, sequence (P08684 whole entry): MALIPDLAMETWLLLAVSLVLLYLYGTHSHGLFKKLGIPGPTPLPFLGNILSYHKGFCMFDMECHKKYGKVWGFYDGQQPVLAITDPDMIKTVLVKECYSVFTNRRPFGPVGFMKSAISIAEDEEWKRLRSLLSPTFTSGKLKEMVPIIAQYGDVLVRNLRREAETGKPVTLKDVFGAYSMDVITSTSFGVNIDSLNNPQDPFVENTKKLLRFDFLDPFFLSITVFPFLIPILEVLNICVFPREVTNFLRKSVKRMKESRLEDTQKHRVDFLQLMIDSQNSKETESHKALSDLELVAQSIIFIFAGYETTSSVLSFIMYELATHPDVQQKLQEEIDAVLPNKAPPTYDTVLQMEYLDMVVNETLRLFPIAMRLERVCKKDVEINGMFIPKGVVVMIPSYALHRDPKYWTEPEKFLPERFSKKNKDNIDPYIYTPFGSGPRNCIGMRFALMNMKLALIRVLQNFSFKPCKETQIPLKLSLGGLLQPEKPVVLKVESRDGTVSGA

inhibition [1]: 17% | Ki [12]: 2310 nM | Activity [24]: inactive | inhibition at 25 µM [30]: 50% | Activity [35]: inactive
SMILES: c1ccc2c(OCCCCCN3CCCCC3)cccc2c1
Activity [2]: Non-Toxic | Activity [3]: Non-Toxic | Activity [4]: Non-Toxic | Activity [5]: Non-Toxic | Activity [6]: inactive | ED50 [7]: > 60.6 mg/kg | Activity [8]: Non-Toxic | Activity [9]: Non-Toxic | Activity [10]: Non-Toxic | ED50 [11]: 19.2 mg/kg | Activity [13]: inactive | Activity [14]: Non-Toxic | Activity [15]: Non-Toxic | Activity [16]: Toxic | Activity [17]: Non-Toxic | Activity [18]: Non-Toxic | Activity [19]: inactive | TD50 at 0.25 h [20]: > 500 mg/kg | Activity [21]: Non-Toxic | ED50 [22]: 30 mg/kg | TD50 at 0.25 h [23]: 60.6 mg/kg | selectivity ratio [25]: 2.9 | TD50 at 0.25 h [26]: 94.8 mg/kg | ED50 [27]: > 250 mg/kg | selectivity ratio [28]: 1.6 | ED50 [29]: 57.2 mg/kg | Activity [31]: Active | ED50 [32]: 31.1 mg/kg | Activity [33]: Non-Toxic | Activity [34]: Active | Activity [36]: Active | Activity [37]: Non-Toxic | Activity [38]: Active | Activity [39]: Non-Toxic
